GI50 and IC50 data for 18 molecules are collected here from patent publication US8466193B2, “Selective inhibitors of histone deacetylase” (Pharmacyclics, Inc., priority 2008, dated 2013).

Each structure is given as a SMILES string. Where only a bound is given, the exact number is not on record here.

For one assay, the system named is Jurkat cells. In words: Cell proliferation assay, growth inhibition by Alamar Blue. In kind it is cell-based. The settings on record: Jurkat cells treated with compound for 3 days. The method, then:
Cell lines were obtained from DSMZ (Braunschweig, Germany) or ATCC (Manassas, Va.). Cells were grown in RPMI 1640 with 10% fetal bovine serum in a 5% CO2/air incubator at 37° C. Thapsigargin and BAPTA-AM were from Calbiochem (San Diego, Calif.). 3-((dimethylamino)methyl)-N-(2-(4-(hydroxycarbamoyl)phenoxy)ethyl)benzofuran-2-carboxamide is a broad-spectrum HDAC inhibitor which was synthesized as previously described. Other analogs with varying degrees of specificity towards the HDAC isoforms were synthesized as described herein.
Tumor cell lines and human umbilical vein endothelial cells (HUVEC) were cultured for at least two doubling times, and growth was monitored at the end of compound exposure using an Alamar Blue™ (Biosource, Camarillo, Calif.) fluorometric cell proliferation assay as recommended by the manufacturer. Compounds were assayed in triplicate wells in 96-well plates. The concentration required to inhibit cell growth by 50% (GI50) and 95% confidence intervals were estimated from nonlinear regression using a 4-parameter logistic equation. The effect of HDAC8 selective inhibitor compounds on cell proliferation in Jurkat cells was measured. Apoptosis was measured by Annexin-V flow cytommetry. Growth inhibition was measured by Alamar Blue assay. Cells were treated with compound for 3 days.

Another assay deals with HDAC1 (Homo sapiens, UniProt Q13547). In words: Histone deacetylase activity, continuous trypsin-coupled assay. In kind it is biochemical. The settings on record: 15 minutes preincubation; substrate acetyl-Gly-Ala-(N-acetyl-Lys)-AMC. The method, then:
(§1) HDAC activity was measured using a continuous trypsin-coupled assay that has been described in detail previously (US 20070281934; Schultz et. al., Biochemistry, 43 (34), 11083-11091, 2004; Kim et al. (2006), Methods Mol. Biol., 325:273-283). For inhibitor characterization, measurements were performed in a reaction volume of 100 μL using 96-well assay plates in a fluorescence plate reader. For each isozyme, the HDAC protein in reaction buffer (50 mM HEPES, 100 mM KCl, 0.001% Tween-20, 5% DMSO, pH 7.4, supplemented with bovine serum albumin at concentrations of 0-0.05%, was mixed with inhibitor at various concentrations and allowed to incubate for 15 minutes. Trypsin was added to a final concentration of 50 nM, and acetyl-Gly-Ala-(N-acetyl-Lys)-AMC was added to a final concentration of 25-100 μM to initiate the reaction. After a 30 minute lag time, the fluorescence was measured over a 30 minute time frame using an excitation wavelength of 355 nm and a detection wavelength of 460 nm. The increase in fluorescence with time was used as the measure of the reaction rate. Inhibition constants Ki(app) were obtained using the program BatchKi (Biokin, Pullman, Wash.).

In a further assay the target is T1, HDAC6 (Homo sapiens, UniProt Q9UBN7).
T1 sequence (Q9UBN7 1-1215): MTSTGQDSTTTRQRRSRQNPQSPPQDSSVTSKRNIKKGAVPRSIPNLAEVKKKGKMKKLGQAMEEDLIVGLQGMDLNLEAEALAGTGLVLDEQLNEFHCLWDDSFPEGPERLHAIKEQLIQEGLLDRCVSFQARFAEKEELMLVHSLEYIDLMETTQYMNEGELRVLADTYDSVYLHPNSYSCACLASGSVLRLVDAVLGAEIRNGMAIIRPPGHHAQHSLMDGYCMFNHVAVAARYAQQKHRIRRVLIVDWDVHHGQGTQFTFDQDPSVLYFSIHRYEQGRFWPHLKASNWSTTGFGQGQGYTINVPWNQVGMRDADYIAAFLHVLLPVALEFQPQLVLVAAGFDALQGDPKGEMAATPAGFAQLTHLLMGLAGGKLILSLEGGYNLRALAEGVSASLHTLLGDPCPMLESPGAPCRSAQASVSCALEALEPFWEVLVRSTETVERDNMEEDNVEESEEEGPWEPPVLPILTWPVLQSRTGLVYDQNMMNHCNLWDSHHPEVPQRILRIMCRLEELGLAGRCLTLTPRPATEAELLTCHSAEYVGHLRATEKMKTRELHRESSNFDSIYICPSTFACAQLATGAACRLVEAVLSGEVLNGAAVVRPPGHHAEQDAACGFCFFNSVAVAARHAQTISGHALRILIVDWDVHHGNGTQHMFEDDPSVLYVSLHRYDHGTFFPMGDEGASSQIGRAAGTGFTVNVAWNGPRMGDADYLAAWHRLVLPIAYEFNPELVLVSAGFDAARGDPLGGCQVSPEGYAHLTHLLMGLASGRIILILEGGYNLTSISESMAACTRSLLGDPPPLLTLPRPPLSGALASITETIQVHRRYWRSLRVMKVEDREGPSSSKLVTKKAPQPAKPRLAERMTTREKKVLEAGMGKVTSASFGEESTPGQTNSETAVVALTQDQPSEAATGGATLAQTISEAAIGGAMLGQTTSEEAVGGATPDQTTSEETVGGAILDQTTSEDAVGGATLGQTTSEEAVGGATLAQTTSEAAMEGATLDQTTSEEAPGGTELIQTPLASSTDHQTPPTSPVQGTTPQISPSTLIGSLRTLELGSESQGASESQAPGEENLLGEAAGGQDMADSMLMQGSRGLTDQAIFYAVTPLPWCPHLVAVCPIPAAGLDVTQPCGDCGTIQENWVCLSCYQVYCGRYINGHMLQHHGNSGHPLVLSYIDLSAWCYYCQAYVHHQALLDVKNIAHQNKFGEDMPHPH
Described as above. In kind it is biochemical. The settings on record: 15 minutes preincubation; substrate acetyl-Gly-Ala-(N-acetyl-Lys)-AMC. The method, then:
as §1

Another assay addresses T2, HDAC8 (Homo sapiens, UniProt Q9BY41).
T2 sequence (Q9BY41 1-377): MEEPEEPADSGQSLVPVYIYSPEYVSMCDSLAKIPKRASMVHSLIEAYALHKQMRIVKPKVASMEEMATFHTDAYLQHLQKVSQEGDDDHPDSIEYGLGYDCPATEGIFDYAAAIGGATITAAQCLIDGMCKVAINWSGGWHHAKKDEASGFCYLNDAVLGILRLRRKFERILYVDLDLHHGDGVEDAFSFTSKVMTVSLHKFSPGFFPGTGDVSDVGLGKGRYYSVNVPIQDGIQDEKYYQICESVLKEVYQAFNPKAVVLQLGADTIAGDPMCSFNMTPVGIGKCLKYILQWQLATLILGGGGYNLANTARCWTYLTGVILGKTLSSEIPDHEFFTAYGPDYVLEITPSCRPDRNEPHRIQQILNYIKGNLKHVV
Described as above. In kind it is biochemical. The settings on record: 15 minutes preincubation; substrate acetyl-Gly-Ala-(N-acetyl-Lys)-AMC. As to the method: as §1

The target of the next assay is HDAC2 (Homo sapiens, UniProt Q92769). Described as above. The class given is biochemical. The settings on record: 15 minutes preincubation; substrate acetyl-Gly-Ala-(N-acetyl-Lys)-AMC. The method, then:
as §1

HDAC1, sequence (Q13547 whole entry, species assumed): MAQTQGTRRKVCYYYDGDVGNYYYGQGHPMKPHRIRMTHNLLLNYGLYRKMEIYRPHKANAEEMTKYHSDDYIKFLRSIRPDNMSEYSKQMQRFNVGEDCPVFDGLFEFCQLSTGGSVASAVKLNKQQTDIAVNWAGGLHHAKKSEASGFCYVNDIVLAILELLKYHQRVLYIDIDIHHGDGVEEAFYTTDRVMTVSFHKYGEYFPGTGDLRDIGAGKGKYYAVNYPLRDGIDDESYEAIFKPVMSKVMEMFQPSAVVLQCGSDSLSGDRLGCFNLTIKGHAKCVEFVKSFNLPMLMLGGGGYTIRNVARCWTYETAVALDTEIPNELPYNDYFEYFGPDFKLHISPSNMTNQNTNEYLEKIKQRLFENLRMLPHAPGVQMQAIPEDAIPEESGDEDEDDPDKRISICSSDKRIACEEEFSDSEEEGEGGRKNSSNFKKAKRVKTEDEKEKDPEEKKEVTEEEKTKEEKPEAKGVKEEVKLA
HDAC2, sequence (Q92769 whole entry, species assumed): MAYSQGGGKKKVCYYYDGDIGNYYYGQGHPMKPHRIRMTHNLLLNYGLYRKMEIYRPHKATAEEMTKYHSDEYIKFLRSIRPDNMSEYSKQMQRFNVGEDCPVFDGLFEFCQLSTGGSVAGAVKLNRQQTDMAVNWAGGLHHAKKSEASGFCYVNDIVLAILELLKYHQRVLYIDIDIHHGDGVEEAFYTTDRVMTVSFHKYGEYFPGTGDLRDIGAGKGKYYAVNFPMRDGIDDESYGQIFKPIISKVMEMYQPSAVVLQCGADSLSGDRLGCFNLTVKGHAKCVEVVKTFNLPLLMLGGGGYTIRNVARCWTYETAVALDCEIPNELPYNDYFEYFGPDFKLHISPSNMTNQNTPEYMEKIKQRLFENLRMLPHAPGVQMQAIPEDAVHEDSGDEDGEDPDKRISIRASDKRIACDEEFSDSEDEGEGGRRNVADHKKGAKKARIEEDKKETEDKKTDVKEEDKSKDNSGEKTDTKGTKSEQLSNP

Consider `COc1ccc(Cn2ccc3ccc(C(=O)NO)cc32)cc1F` [Compound 330, N-hydroxy-1-(3-fluoro-4-methoxybenzyl)-1H-indole-6-carboxamide], for which the GI50 in the assay with Jurkat cells (Homo sapiens, 72 h) came to 4.7 µM.

Regarding `COc1ccc(Cn2cccc2/C=C/C(=O)NO)cc1` [Compound 203, (E)-3-(1-(4-methoxybenzyl)-1H-pyrrol-2-yl)-N-hydroxyacrylamide], the IC50 is over 10 µM against HDAC1, 1 to 10 µM on HDAC6 and under 1 µM on HDAC8.

For the molecule `COc1ccc(Cn2cc(CNCc3ccccc3)c3ccc(C(=O)NO)cc32)cc1` [Compound 308, 3-((benzylamino)methyl)-N-hydroxy-1-(4-methoxybenzyl)-1H-indole-6-carboxamide], the GI50 in the assay on Jurkat cells (Homo sapiens, 72 h) was 5.2 µM.

`O=C(NO)c1ccc2ncn(Cc3ccccc3)c2c1` [Compound 1, 3-benzyl-N-hydroxy-3H-benzo[d]imidazole-5-carboxamide]: the concentration for half-maximal inhibition (IC50) was over 10 µM against HDAC1, 1 to 10 µM against HDAC6 and under 1 µM against HDAC8.

With `O=C(NO)c1ccc2ccn(CCOc3ccc(CN4CCOCC4)cc3)c2c1` [Compound 328, N-hydroxy-1-(2-(4-(morpholin-4-ylmethyl)phenoxy)ethyl)-1H-indole-6-carboxamide], in the assay on Jurkat cells (Homo sapiens, 72 h), the GI50 was 12.5 µM.

Turning to `COc1ccc(Cn2ccc3ccc(C(=O)NO)cc32)cn1` [Compound 310, N-hydroxy-1-(2-methoxylpyridin-5-ylmethyl)-1H-indole-6-carboxamide], the IC50 is over 10 µM on HDAC2 and under 1 µM on HDAC8. Also, the GI50 with Jurkat cells (Homo sapiens, 72 h) was 16 µM.

`COc1ccc(Cn2ccc3ccc(C(=O)NO)cc32)cc1` [Compound 306, N-hydroxy-1-(4-methoxybenzyl)-1H-indole-6-carboxamide]: in the assay with Jurkat cells (Homo sapiens, 72 h), the GI50 was 3.6 µM.

Turning to `O=C(NO)c1ccc2ccn(Cc3ccc4c(c3)OCO4)c2c1` [Compound 315, N-hydroxy-1-(benzo[d][1,3]dioxol-5-ylmethyl)-1H-indole-6-carboxamide], the IC50 on HDAC2 is over 10 µM; against HDAC8, under 1 µM.

For `O=C(NO)c1ccc2ccn(CCOc3cccc(F)c3)c2c1` [Compound 318, N-hydroxy-1-(2-(3-fluorophenoxy)ethyl)-1H-indole-6-carboxamide], the IC50 on HDAC1 is over 10 µM; against HDAC6, 1 to 10 µM; at HDAC8 it was under 1 µM.

For the molecule `COc1ccc(Cn2cc(CN(C)C)c3ccc(C(=O)NO)cc32)cc1` [Compound 307, N-hydroxy-1-(4-methoxybenzyl)-3-(dimethylaminomethyl)-1H-indole-6-carboxamide], the figures for the IC50 against HDAC2 and on HDAC8 were over 10 µM and under 1 µM, respectively.

Regarding `O=C(NO)c1ccc2ccn(CCc3ccccc3)c2c1` [Compound 302, N-hydroxy-1-(2-phenyl-ethyl)-1H-indole-6-carboxamide], in the assay with Jurkat cells (Homo sapiens, 72 h), the GI50 worked out at 25.2 µM.

As to `O=C(NO)c1ccc2ccn(CCOc3ccccc3F)c2c1` [Compound 317, N-hydroxy-1-(2-(2-fluorophenoxy)ethyl)-1H-indole-6-carboxamide], the half-inhibitory concentration (IC50) at HDAC1 is over 10 µM; against HDAC6 it was 1 to 10 µM; at HDAC8, under 1 µM.

Consider `O=C(/C=C/c1cccn1CCOc1cccc(F)c1)NO` [Compound 234, (E)-3-(1-(2-(3-fluorophenoxy)ethyl)-1H-pyrrol-2-yl)-N-hydroxyacrylamide], for which the half-maximal inhibitory concentration (IC50) at HDAC1 was 1 to 10 µM; at HDAC6, 1 to 10 µM; at HDAC8 it was under 1 µM. Moreover, in the assay with Jurkat cells (Homo sapiens, 72 h), the GI50 was 4.3 µM.

Consider `COc1ccc(Cn2cc(CN(C)CCc3ccccn3)c3ccc(C(=O)NO)cc32)cc1` [Compound 309, N-hydroxy-1-(4-methoxybenzyl)-3-((methyl(2-(pyridin-2-yl)ethyl)amino)methyl)-1H-indole-6-carboxamide], for which the IC50 against HDAC2 was over 10 µM; on HDAC8, under 1 µM. Moreover, the 50% growth inhibitory concentration (GI50) in the assay on Jurkat cells (Homo sapiens, 72 h) is 19.2 µM.

On to `O=C(NO)c1ccc2ccn(Cc3cccc(NS(=O)(=O)c4ccccc4)c3)c2c1` [Compound 313, N-hydroxy-1-(3-(phenylsulfonamido)benzyl)-1H-indole-6-carboxamide], for which the IC50 at HDAC2 was 1 to 10 µM; against HDAC8, under 1 µM. Further, in the assay on Jurkat cells (Homo sapiens, 72 h), the 50% growth inhibitory concentration (GI50) came to 5.2 µM.

For the molecule `O=C(/C=C/c1cccn1CCOc1ccccc1)NO` [Compound 232, (E)-N-hydroxy-3-(2-phenoxyethyl-1H-pyrrol-2-yl)acrylamide], the figures for the 50% inhibitory concentration (IC50) at HDAC1, on HDAC6 and against HDAC8 were over 10 µM, 1 to 10 µM and under 1 µM, respectively. Moreover, in the assay with Jurkat cells, the GI50 was determined as 4.98 µM.

Regarding `O=C(NO)c1ccc2ccn(CCOc3cccc(Cl)c3)c2c1` [Compound 321, N-hydroxy-1-(2-(3-chlorophenoxy)ethyl)-1H-indole-6-carboxamide], the figures for the half-maximal inhibitory concentration (IC50) at HDAC1, on HDAC6 and at HDAC8 were over 10 µM, 1 to 10 µM and under 1 µM, respectively.

Consider `O=C(NO)c1ccc2ccn(CCOc3ccccc3Cl)c2c1` [Compound 320, N-hydroxy-1-(2-(2-chlorophenoxy)ethyl)-1H-indole-6-carboxamide], for which the figures for the concentration for half-maximal inhibition (IC50) at HDAC1, at HDAC6 and against HDAC8 were over 10 µM, 1 to 10 µM and under 1 µM, respectively.
